From patent publication US20220039907A1, “Inhibiting Post-Biopsy Inflammation and Metastasis” (The Board of Regents of the University of Oklahoma, priority 2020, published 2022)

Columns and labels:
[1] = test system: bone marrow-derived primary Mϕ; experiment: PGE2-mediated arginase expression in bone marrow-derived primary Mϕ with EP inhibitors; type: cell-based; settings: Mϕ incubated with PGE2 and selective EP inhibitor
Description: (§1) To further identify the biological consequences of abundant PGE2, the bone marrow-derived primary Mϕ was incubated with 10 μM PGE2. […] PGE2 exerts its action through 4 integral membranous E prostanoid receptors (EP1, EP2, EP3, and EP4). The Mϕ was incubated with PGE2 and selective pharmacologic inhibitors against respective prostaglandin E2 receptor (EP2).

[2] = test system: VCAM1 expression in End.3; experiment: PGE2-induced VCAM1 expression in End.3 with selective EP antagonists; type: cell-based, murine; settings: End.3 cells, PGE2 stimulated
Excerpt: (§2) Inflamed vessels serve as a gateway for MSCs to enter tissue parenchyma. VCAM1 engagement to integrin α4β1 (very late antigen 4; VLA4) mediates shear resistant adhesion of MSCs to the vessel wall that leads to their trans-endothelial migration. […] Similarly, VCAM1 vascular expression was elevated in PGE2 treated mice compared to untreated ones (FIG. 10(B)). Accordingly, shear resistant adhesion of human MSCs was 2-fold higher to PGE2 treated HMVECs than to untreated ones; however, VCAM1 neutralizing antibody abrogated PGE2-induced shear resistant adhesion of MSCs (FIG. 10(C)). […] The white circle in the left panel of FIG. 10(D) indicates infiltrating GFP+ MSCs, and the inset in the upper left corner is a close-up image of the corresponding location. Since VLA4 is the ligand for VCAM1, and conformational change of VLA4 is prerequisite for binding to VCAM1, ligand binding assay using FITC-LDV peptide (which selectively binds to an active form of VLA4) was performed.
PGE2 exerts its action through the binding to 4 types of prostaglandin E receptor (EP1, 2, 3, and 4), which ubiquitously express in various cell types. Human endothelial cells express all 4 types of EP receptors. […] Therefore, without wishing to be bound by theory, an explanation of biopsy-induced metastasis is that systemic availability of PGE2 leads to an elevation of VCAM1 expression in the pulmonary vessels through the EP4 receptor, resulting in increased MSCs tissue infiltration that initiates a provisional PMN in the perivascular space of the lungs (see overview model in FIG. 8).

Py230mCherry tumor = experiment: Biopsy-induced lung metastasis in Py230mCherry tumor bearing mice, oral COX2/EP2 inhibitors; type: in vivo; settings: daily following biopsy, n=15 per group
[3] = test system: bone marrow-derived primary Mϕ; experiment: Quantitative PCR of M2/M1 marker mRNAs in bone marrow-derived primary Mϕ incubated with PGE2; type: cell-based; settings: 10 μM PGE2
Description: as §1

[4] = test system: VCAM1 vascular expression; experiment: VCAM1 vascular expression in PGE2 treated mice; type: in vivo; settings: PGE2 treated versus untreated mice
Excerpt: as §2

pulmonary vessels = experiment: Pulmonary vessel permeability (Evans Blue leakage) after intravenous PGE2; type: in vivo, mice; settings: intravenous injection, versus saline
[5] = test system: human microvessel endothelial cells (HMVECs); experiment: PGE2 induction of VCAM1 mRNA in HMVECs; type: cell-based; settings: PGE2 level equivalent to post-biopsy blood
Excerpt: as §2

HMVECs = experiment: Shear resistant adhesion of human MSCs to HMVECs; type: cell-based; settings: PGE2 treated HMVECs versus untreated
Excerpt: as §2

py230 BC cells = experiment: Experimental metastasis model: intravenous PGE2 priming followed by py230 BC cell injection; type: in vivo; settings: intravenous PGE2 at level equal to post-biopsy blood, versus untreated mice
Excerpt: Wounding triggers a repair cascade by forming a fibrin matrix containing a series of chemo-attractants (e.g., TGF-β, bFGF, PDGF, TNFα, and EGF) that recruit MSCs from bone marrow to the injured site. MSCs produce innumerable growth factors, cyto-chemokines, and metabolites that promote angiogenesis, immunomodulation, and ECM remodeling in order to repair the damaged tissue. […] MSC2 is characterized by a high level of PGE2 release, a potent vasodilater. […] Given the high interstitial pressure coupled with insufficient lymphatic drainage due to superficial lymphatic vessels in solid tumors, soluble factors seep into the circulation from the tumor. Accordingly, PGE2 levels in the blood were 3 times higher in the biopsied mice compared to that in mice bearing unbiopsied tumors or mice without tumor burden (FIG. 6(C)). PGE2 is enzymatically converted from arachidonic acid by the rate-limiting enzyme Cyclooxygenase (COX). COX2 expression is induced by inflammatory stimuli, whereas COX1 is constitutive. […] However, the biologic mechanism by which circulating PGE2 promotes metastasis has heretofore remained unknown.
PGE2-induced hyper-permeation sites indicated by leakage of 40 kDa FITC-dextran (green) coincided with accumulation of SSEA4^+ MSCs (red), a key component of the PMN^51 (FIG. 9(C)).

[6] = test system: murine endothelial cell line (End.3); experiment: PGE2 induction of VCAM1 mRNA in End.3; type: cell-based; settings: End.3, PGE2 level equivalent to post-biopsy blood
Excerpt: as §2

lung = experiment: Adoptive transfer of GFP+ MSCs into PGE2 pre-treated mice; type: in vivo
Excerpt: as §2

primary mouse MSCs = experiment: Biopsy-WF induced PGE2 release from primary mouse MSCs; type: cell-based; settings: primary mouse MSCs treated with biopsy-WF
4T1-Luc tumors = experiment: Organ metastasis-free survival of 4T1-Luc tumor mice with or without biopsy, oral ibuprofen; type: in vivo
Description: To experimentally explore the hypothesis that inhibition of PGE2 biosynthesis by NSAIDs diminishes biopsy-induced metastasis, 4T1-Luc tumors were biopsied or left unbiopsied (n=10 per group) once tumor size reached 100 mm^3. One day later, daily oral ibuprofen (non-selective COX inhibitor) or saline was started (50 mg/kg) for 9 days, until the day before mastectomy. Mice were then monitored for metastasis over the next 3 months. […] In contrast, cellularity and COX2 expression in the biopsy wound were far less in mice that were treated with ibuprofen (FIG. 12(B)).

[7] = test system: PGE2 level in biopsied mouse tumors; experiment: PGE2 level in biopsied mouse tumors after oral ibuprofen; type: in vivo; settings: oral administration; to a level equal to the unbiopsied tumor

Cc1cc(Cl)ccc1S(=O)(=O)NC[C@H]1C2CCC(CC2)[C@@H]1/C=C\CCCC(=O)O [0N08711]
PGE2-mediated arginase expression [1]: no inhibitory effect | PGE2-induced VCAM1 expression [2]: no effect

CCCCc1nn(-c2ccccc2C(F)(F)F)c(=O)n1Cc1ccc(-c2ccccc2S(=O)(=O)NC(=O)c2sccc2C)cc1 [L-161982]
PGE2-mediated arginase expression [1]: no inhibitory effect | PGE2-induced VCAM1 expression [2]: blocked

COc1ccc(Br)cc1S(=O)(=O)NC(=O)/C=C/c1ccccc1Cc1ccc2ccccc2c1 [L-798106]
PGE2-mediated arginase expression [1]: no inhibitory effect

COc1ccc2cc(OCC3(C(=O)O)CN(C(=O)c4ccc(F)cc4)C3)ccc2c1 [PF-04418948]
PGE2-mediated arginase expression [1]: abrogated | biopsy-induced lung metastasis (Py230mCherry tumor): significantly reduced | PGE2-induced VCAM1 expression [2]: no effect

CCCCC[C@H](O)/C=C/[C@H]1[C@H](O)CC(=O)[C@@H]1C/C=C\CCCC(=O)O [PGE2, prostaglandin E2]
M1 marker mRNAs (iNOS and TNFα) [3]: decrease | M2 marker mRNA expression (arginase, YM1, YM2) [3]: increase | VCAM1 vascular expression [4]: elevated | vessel permeability (Evans Blue leakage into the lungs) (pulmonary vessels): increased vessel permeability | VCAM1 mRNA expression [5]: induce | shear resistant adhesion of human MSCs (HMVECs): 2 fold | pulmonary metastasis of py230 BC cells (py230 BC cells): enhanced pulmonary metastasis | VCAM1 mRNA expression [6]: induce | infiltration of GFP+ MSCs (lung): preferential infiltration to perivascular space

CC(C)Cc1ccc(C(C)C(=O)O)cc1 (stereo not drawn) [ibuprofen]
biopsy-WF induced PGE2 release (primary mouse MSCs): equally abrogated | onset of metastasis (4T1-Luc tumors; biopsied 4T1-Luc mice, daily oral 50 mg/kg for 9 days): delayed onset | metastasis incidence (4T1-Luc tumors; biopsied 4T1-Luc mice, daily oral 50 mg/kg for 9 days, monitored 3 months, biopsied without drug 6/10): 2/10 | cellularity and COX2 expression in the biopsy wound (4T1-Luc tumors; histopathology of mastectomized tumors, versus untreated biopsied): far less | effect on metastasis in mice that did not receive biopsy (4T1-Luc tumors; unbiopsied 4T1-Luc mice, daily oral 50 mg/kg): no significant effect | PEG2 level in biopsied mouse tumors [7]: significantly reduced

COc1ccc2c(c1)c(CC(=O)O)c(C)n2C(=O)c1ccc(Cl)cc1 [indomethacin]
biopsy-WF induced PGE2 release (primary mouse MSCs): equally abrogated
